Source: US10501800B2, “Breast cancer prognosis” (Regents of the University of Minnesota, priority 2012, dated 2019)
Entries after “also recorded” stand apart in the source; their conditions may differ.

Legend:
[1] = test system: PR target genes (CHN2, RGS2, ACOT6) in BT-474 human breast cancer cells; assay: RT-qPCR of PR target genes in BT-474 cells, with or without MEK inhibitor; assay type: cell-based; details: R5020 10^−8 M plus RU486 10^−7 M, 6 h
Method: For reverse transcription quantitative polymerase chain reaction (RT-qPCR) assays, 5×10^5 cells/well were plated in 6-well dishes, serum starved in modified IMEM for 1 day before treatments (see individual figures). RNA was extracted using TriPure reagent (Roche, catalog #11667157001) and cDNA was created using the Transcriptor cDNA first-strand cDNA synthesis kit (Roche, catalog #04897030001). Relative expression levels were determined by qPCR assays performed on a Roche LightCycler II using SYBR green master-mix (Roche, catalog #04887352001). Target gene quantification levels were normalized to the expression of standard housekeeper genes: TBP, ACTB, and/or GAPDH. For cells expressing inducible PR, the protocol was the same as above, except prior to ligand treatments, the cells were induced with AP21967 (10^−9 M) for 2 d.
For experiments using MEK inhibitors, BT-474 cells were plated in […] dishes at 5×10^5 cells/well. One day later, the cells were washed and serum starved in modified IMEM for 1d. These cells were pre-treated with the MEK inhibitor U0126 (5 uM, EMD Chemicals, catalog #662005) for 30 min R5020 (10^−8 M) and/or RU486 (10^−7 M) was then added to cell culture wells for 6 h before RNA/protein isolation and RT-qPCR/western blotting was performed, as described above.

[2] = test system: PR target genes in T47D cells expressing WT PR, SUMO-deficient PR (KR) or empty vector; assay: Gene expression profiling (Illumina HT-12v4) of T47D cell lines treated with progesterone or antiprogestins; assay type: cell-based, human
Method: T47D cells stably expressing pIRES-neo3 empty vector, WT or KR PR were serum starved in modified IMEM (Gibco, catalog #A10488) for 1 day, treated with R5020 (10^−8 M) or vehicle control for 6 h before RNA extraction using a RNeasy kit (QIAgen, catalog #74104). Six h of progestin treatment allowed for substantial PR-dependent gene expression as compared to prior studies (Jacobsen et al., 2005; Richer et al., 2002). DNase I treated (QIAgen, catalog #79254) RNA samples from duplicate experiments were prepared for expression analysis using the Illumina HT-12v4 bead chip platform according to manufacture's protocols. Data were analyzed within R software using the Bioconductor (Gentleman et al., 2004) package called lumi where raw intensities were log2 transformed and quantile normalized. Differentially expressed genes were analyzed using the limma package, where empirical Bayes was used to better estimate the variance of the genes. Gene expression data presented contain log2 normalized intensities and biological comparisons presented (e.g. R5020/vehicle) contain log2 fold change with the Benjamini and Hochberg (BH) adjusted P value (Benjamini and Hochberg, 1995). To generate the heat map in FIG. 1C, unsupervised hierarchical clustering of genes was carried out using heatmap. 2 function in the R package gplots. Clustering was performed using Euclidean distance and complete linkage. Rows were scaled to have mean zero and standard deviation equal to one.
Gene expression profiles in T47D cell lines treated with antiprogestins were obtained using identical methods as described above, except for these notable differences. After serum starvation, cells stably expressing empty vector, WT, or KR PR were treated for 6 hours under one of eight possible conditions: (1) ethanol (vehicle control), (2) progesterone (10^−8 M), (3) RU486 (10^−7 M), (4) aglepristone (10^−7 M), (5) onapristone (10^−7 M), (6) RU486 (10^−7 M) plus progesterone (10^−8 M), (7) aglepristone (10^−7 M) plus progesterone (10^−8 M), or (8) onapristone (10^−7 M) plus progesterone (10^−8 M). Gene expression levels were measured, normalized, analyzed, and heat maps were generated using the methods described above.
Raw microarray data from two independent microarray experiments (both performed using the Illumina HT-12v4 platform described above) were combined and normalized together within R software using the Bioconductor (Gentleman et al., 2004) package called lumi where raw intensities were log 2 transformed and quantile normalized.
Sample Sizes & Composition: For the first analysis, two KR cell replicates were used that had been stimulated with R5020 a synthetic progestin in the first experiment and three KR cell replicates that had been stimulated with progesterone in the second experiment. The same was accomplished regarding the corresponding WT cell replicates. Pertaining to the first analysis, therefore, a sample size of n=5 was used for each of the two groups (KR & WT). Regarding the second analysis, we used three KR cell replicates that had been co-treated with progesterone plus onapristone in the second experiment; and we used three WT cell replicates that had been co-treated with progesterone plus onapristone also in the second experiment (n=3 for each of the two groups). Regarding the third analysis, we used three KR cell replicates that had been co-treated with progesterone plus RU486 in the second experiment; and we used three WT cell replicates that had been co-treated with progesterone plus RU486 also in the second experiment (n=3 for each of the two groups). Regarding the fourth analysis, three KR cell replicates was used that had been co-treated with progesterone plus onapristone; and three WT cell replicates were used that had been treated with vehicle control (ethanol) (n=3 for each of the two groups). […]

[3] = test system: PR target genes (MSX2, RGS2, MAP1A, PDK4) in MCF-7 cells; assay: RT-qPCR of PR target genes in MCF-7 cells stably expressing WT or KR PR; assay type: cell-based, human; details: R5020 10^−8 M plus RU486 10^−7 M, 6 h
[4] = test system: BT-474 cells; assay: MTT proliferation assay in BT-474 cells; assay type: cell-based, human; details: MTT assays over six days in vitro; data not shown
Method: Cell proliferation was measured using MTT assays (3-[4,5-dimethylthiazol-2-yl]-2,5-diphenyltetrazolium bromide, Sigma catalog #M2128). In 24-well plates, 1×10^4 cells/well were plated in cMEM (inducible PR expression was induced with AP21967 (10^−9 M) for 2 days), cells were washed and steroid starved in modified IMEM supplemented with 5% dextran-coated charcoal-treated (DCC) FBS for 1 day before the addition of R5020 (10^−8 M). At days 0, 2, 4, 6, cell proliferation was determined by adding 60 ul MTT (5 mg/ml) to each 0.5 ml cell culture well for 3 hours, medium was carefully removed and solublization solution (90% v/v DMSO/PBS) was added to lyse the cells. Lysate absorbance (650 and 570 nm) was measured using a plate reader. 650 nm measurements were subtracted from 570 nm measurements and sample means were normalized to day zero.

[5] = test system: breast cancer; details: in vivo; cited from earlier work
[6] = test system: BT-474 tumor; details: xenograft models; cited from earlier work

Question: With CC#C[C@]1(O)CC[C@H]2[C@@H]3CCC4=CC(=O)CCC4=C3[C@@H](c3ccc(N(C)C)cc3)C[C@@]21C [RU486, (10S,11S,14S,15S,17R)-17-[4-(dimethylamino)phenyl]-14-hydroxy-15-methyl-14-(prop-1-yn-1-yl)tetracyclo[8.7.0.0^ {2,7}.0^{11,15}]heptadeca-1,6-dien-5-one] as the compound, how does the “R5020-induced expression of CHN2, RGS2 and ACOT6” value [1] read?
Answer: entirely blocked

Question: And the “expression of progesterone-regulated PR target genes” value ([2]; T47D cells expressing SUMO-deficient PR (KR), antiprogestin 10^−7 M alone or plus progesterone 10^−8 M, 6 h)?
Answer: caused many PR target genes to become upregulated

Question: And the “number of genes significantly differentially expressed between KR and WT cells” value ([2]; both cell lines co-treated with progesterone plus the antiprogestin)?
Answer: 7 genes

Question: What about the “significant differential expression of the 15 biomarker genes between KR and WT cells” value ([2]; both cell lines co-treated with progesterone plus the antiprogestin, with the exception of one gene (CDH10)) of the same compound?
Answer: completely annulled

Question: What about the agonistic activity ([2]; cells expressing hyperactive / SUMO-deficient PR (KR)) of the same compound?
Answer: substantial agonistic activity; also recorded: agonistic properties

Question: And the “R5020-induced mRNA expression of MSX2, RGS2, MAP1A and PDK4” value [3]?
Answer: completely abolished

Question: What about the BT-474 cell proliferation [4] of the same compound?
Answer: significantly blocks

Question: And the “outcome of phase II clinical trials as a breast cancer treatment” value [5]?
Answer: unsuccessful

Question: What about the BT-474 tumor growth [6] of the same compound?
Answer: dramatically inhibits
